From patent publication US20150175530A1, “ANTIBACTERIAL AGENTS” (priority 2012, published 2015)
Values after ≈ are worked out from the molar mass of the structure shown. Where two headings read alike, the source gives them in different places.

What was measured:
[1] = system: 3 P. aeruginosa strains (APAE001, APAE002, APAE006); assay: Protein binding: fold change in MIC in the presence of 2% HSA and 0.05% AGP, Geomean of 3 strains; assay type: cell-based, Pseudomonas aeruginosa; conditions: MIC in the presence of 2% HSA and 0.05% AGP divided by MIC in the absence; Geomean of 3 P. aeruginosa strains (APAE001, APAE002, APAE006)
How it was run: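 MIC against each strain was determined by the standard broth method in cation-adjusted Mueller-Hinton broth with and without 2% HSA plus 0.05% AGP. Fold change is the MIC ratio with/without protein per strain; the value reported is the geometric mean over APAE001, APAE002 and APAE006.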

[2] = system: bacterial isolates (clinical isolates and ATCC quality control strains); assay: Minimum Inhibitory Concentrations (MICs) by broth microdilution (CLSI susceptibility testing); assay type: cell-based; conditions: broth microdilution
How it was run: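 Broth microdilution per CLSI in cation-adjusted Mueller-Hinton broth, 2-fold serial drug dilutions, final inoculum 3×10^5–7×10^5 CFU/mL. Plates incubated 18-24 h at 35 °C in ambient air; MIC is lowest concentration preventing visible growth (OD600 nm<0.05), with levofloxacin and QC strains monitoring performance.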

[3] = APAE1096 is a clinical isolate, read-out: Minimum Inhibitory Concentrations (MICs) APAE1096
[4] = Pseudomonas aeruginosa, APAE002 is a wildtype lab strain of Pseudomonas aeruginosa known as PAM1020 or PA01, read-out: Minimum Inhibitory Concentrations (MICs) APAE002
[5] = Pseudomonas aeruginosa, ATCC27853, APAE001 is Pseudomonas aeruginosa ATCC27853, read-out: Minimum Inhibitory Concentrations (MICs) APAE001

C[C@@H](CO)[C@H](O)C#CC#Cc1ccc(C(=O)N[C@H](C(=O)NO)C(C)(C)N)cc1 [Compound 53, N—((S)-3-amino-1-(hydroxyamino)-3-methyl-1-oxobutan-2-yl)-4-((5S,6S)-5,7-dihydroxy-6-methylhepta-1,3-diyn-1-yl)benzamide]
Protein Binding PB (Geomean of fold change in MIC) [1]: 2.0
MIC [2, 3]: 8 to 16 µg/mL (≈ 20.6 to 41.3 µM)
MIC [2, 4]: 1 to 8 µg/mL (≈ 2.58 to 20.6 µM)
MIC [2, 5]: 1 to 8 µg/mL (≈ 2.58 to 20.6 µM)

CC(C)(N)[C@H](NC(=O)c1ccc(C#CC#C[C@@H](O)CCO)cc1)C(=O)NO [Compound 54, N—((S)-3-amino-1-(hydroxyamino)-3-methyl-1-oxobutan-2-yl)-4-((S)-5,7-dihydroxyhepta-1,3-diyn-1-yl)benzamide]
Protein Binding PB (Geomean of fold change in MIC) [1]: 2.0
MIC [2, 3]: 8 to 16 µg/mL (≈ 21.4 to 42.8 µM)
MIC [2, 4]: < 1 µg/mL
MIC [2, 5]: < 1 µg/mL

CC(C)(N)[C@H](NC(=O)c1ccc(C#C/C=C/CCO)cc1)C(=O)NO [Compound 55, (S,E)-N-(3-amino-1-(hydroxyamino)-3-methyl-1-oxobutan-2-yl)-4-(6-hydroxyhex-3-en-1-yn-1-yl)benzamide]
Protein Binding PB (Geomean of fold change in MIC) [1]: 2.0
MIC [2, 3]: 1 to 8 µg/mL (≈ 2.9 to 23.2 µM)
MIC [2, 4]: < 1 µg/mL
MIC [2, 5]: < 1 µg/mL

CN[C@H](C)[C@H](NC(=O)c1ccc(C#CC#CCO)cc1)C(=O)NO [Compound 56, N-((2S,3R)-1-(hydroxyamino)-3-(methylamino)-1-oxobutan-2-yl)-4-(5-hydroxypenta-1,3-diyn-1-yl)benzamide]
Protein Binding PB (Geomean of fold change in MIC) [1]: 2.5
MIC [2, 3]: 1 to 8 µg/mL (≈ 3.04 to 24.3 µM)
MIC [2, 4]: < 1 µg/mL
MIC [2, 5]: < 1 µg/mL

CC(C)(N)[C@H](NC(=O)c1ccc(C#CC#CC2(O)CCC(CO)C2)cc1)C(=O)NO (stereo partly drawn) [Compound 57, N—((S)-3-amino-1-(hydroxyamino)-3-methyl-1-oxobutan-2-yl)-4-((1-hydroxy-3-(hydroxymethyl)cyclopentyl)buta-1,3-diyn-1-yl)benzamide]
Protein Binding PB (Geomean of fold change in MIC) [1]: 1.6
MIC [2, 3]: 1 to 8 µg/mL (≈ 2.42 to 19.3 µM)
MIC [2, 4]: < 1 µg/mL
MIC [2, 5]: < 1 µg/mL

CC(C)(N)[C@H](NC(=O)c1ccc(C#C/C=C/C(O)CO)cc1)C(=O)NO (stereo partly drawn) [Compound 58, N—((S)-3-amino-1-(hydroxyamino)-3-methyl-1-oxobutan-2-yl)-4-((E)-5,6-dihydroxyhex-3-en-1-yn-1-yl)benzamide]
Protein Binding PB (Geomean of fold change in MIC) [1]: 1.0
MIC [2, 3]: 8 to 16 µg/mL (≈ 22.1 to 44.3 µM)
MIC [2, 4]: 1 to 8 µg/mL (≈ 2.77 to 22.1 µM)
MIC [2, 5]: 1 to 8 µg/mL (≈ 2.77 to 22.1 µM)

C[C@H](O)C#CC#Cc1ccc(C(=O)N[C@H](C(=O)NO)[C@@H](N)C(F)(F)F)cc1 [Compound 59, N-((2S,3R)-3-amino-4,4,4-trifluoro-1-(hydroxyamino)-1-oxobutan-2-yl)-4-((S)-5-hydroxyhexa-1,3-diyn-1-yl)benzamide]
Protein Binding PB (Geomean of fold change in MIC) [1]: 3.2
MIC [2, 3]: 1 to 8 µg/mL (≈ 2.61 to 20.9 µM)
MIC [2, 4]: < 1 µg/mL
MIC [2, 5]: 1 to 8 µg/mL (≈ 2.61 to 20.9 µM)

CC(C)(N)[C@H](NC(=O)c1ccc(C#CC#C[C@H](O)CO)cc1)C(=O)NO [Compound 61, N—((S)-3-amino-1-(hydroxyamino)-3-methyl-1-oxobutan-2-yl)-4-((S)-5,6-dihydroxyhexa-1,3-diyn-1-yl)benzamide]
Protein Binding PB (Geomean of fold change in MIC) [1]: 1.6
MIC [2, 3]: 1 to 8 µg/mL (≈ 2.78 to 22.3 µM)
MIC [2, 4]: < 1 µg/mL
MIC [2, 5]: < 1 µg/mL

CC(C)(N)[C@H](NC(=O)c1ccc(C#CC#C[C@@H](O)CO)cc1)C(=O)NO [Compound 62, N—((S)-3-amino-1-(hydroxyamino)-3-methyl-1-oxobutan-2-yl)-4-((R)-5,6-dihydroxyhexa-1,3-diyn-1-yl)benzamide]
Protein Binding PB (Geomean of fold change in MIC) [1]: 2.0
MIC [2, 3]: 1 to 8 µg/mL (≈ 2.78 to 22.3 µM)
MIC [2, 4]: < 1 µg/mL
MIC [2, 5]: < 1 µg/mL
